Experimental data reported in patent US9156796B2, “Benzoimidazole-carboxylic acid amide derivatives as APJ receptor modulators” (SANOFI, priority 2013, dated 2015).

These compounds were tested against T1, human apelin receptor (Homo sapiens, UniProt P35414) (assay: Determination of agonism on the human apelin receptor by a calcium fluorescence assay (FLIPR)). Settings: HEK293 cells stably transfected with human apelin receptor and Giaq protein, Fluo-4 calcium fluorescence, read-out: EC50 (APJ agonism).
T1 construct: expressed in transfected cells
T1 sequence (P35414 1-380): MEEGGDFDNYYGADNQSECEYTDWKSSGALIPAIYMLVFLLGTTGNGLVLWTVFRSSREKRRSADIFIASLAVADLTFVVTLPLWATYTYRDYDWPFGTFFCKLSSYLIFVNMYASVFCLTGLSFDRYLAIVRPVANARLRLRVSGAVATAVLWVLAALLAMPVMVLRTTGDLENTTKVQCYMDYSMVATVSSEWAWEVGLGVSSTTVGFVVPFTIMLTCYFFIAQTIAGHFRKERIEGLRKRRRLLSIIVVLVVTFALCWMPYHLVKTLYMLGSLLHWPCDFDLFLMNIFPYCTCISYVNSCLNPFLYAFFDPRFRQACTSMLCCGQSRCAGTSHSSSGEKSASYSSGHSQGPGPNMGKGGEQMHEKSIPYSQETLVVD
Format: cell-based
Outline: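 Agonist EC50s come from peak intracellular calcium transients recorded by FLIPR Tetra, scaled to the 1 μM apelin-13 maximum per plate. Test system: HEK293 stably transfected with human apelin receptor plus Giaq, Fluo-4-loaded (4 μM, 1 h, 37 °C, pH 7.4 buffer with probenecid); ≥7 concentrations, triplicates.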

Row | Structure (SMILES) | EC50 [nM]
1 | CCC(CC)n1c(Cc2cccs2)nc2cc(C(=O)N[C@@H](CC(C)C)C(=O)NCCc3cccc(OC)c3)ccc21 [Example 360, 1-(1-Ethyl-propyl)-2-thiophen-2-ylmethyl-1H-benzoimidazole-5-carboxylic acid {(S)-1-[2-(3-methoxy-phenyl)-ethylcarbamoyl]-3-methyl-butyl}-amide] | 21200
2 | CCC(CC)n1c(Cc2cccs2)nc2cc(C(=O)N[C@@H](CC(C)C)C(=O)NCc3ccc4c(c3)OCO4)ccc21 [Example 239, 1-(1-Ethyl-propyl)-2-thiophen-2-ylmethyl-1H-benzoimidazole-5-carboxylic acid {(S)-1-[(benzo[1,3]dioxol-5-ylmethyl)-carbamoyl]-3-methyl-butyl}-amide] | 5590
3 | CCCC(CC(=O)O)NC(=O)c1ccc2c(c1)nc(Cc1cccs1)n2[C@@H]1CCCC[C@H]1C (stereo partly drawn) [Example 55, 3-{[1-((1R,2R)-2-Methyl-cyclohexyl)-2-thiophen-2-ylmethyl-1H-benzoimidazole-5-carbonyl]-amino}-hexanoic acid] | 196
4 | CCC(CC)n1c(Cc2cccs2)nc2cc(C(=O)N[C@@H](CC(C)C)C(=O)NC3CCC3)ccc21 [Example 215, 1-(1-Ethyl-propyl)-2-thiophen-2-ylmethyl-1H-benzoimidazole-5-carboxylic acid ((S)-1-cyclobutylcarbamoyl-3-methyl-butyl)-amide] | 1450
5 | CCC(CC)n1c(Cc2cccs2)nc2cc(C(=O)N[C@@H](CC(C)C)C(=O)NC(C)CC(C)C)ccc21 (stereo partly drawn) [Example 232, 1-(1-Ethyl-propyl)-2-thiophen-2-ylmethyl-1H-benzoimidazole-5-carboxylic acid [(S)-1-(1,3-dimethyl-butylcarbamoyl)-3-methyl-butyl]-amide] | 2920
6 | CCC(CC)n1c(Cc2cccs2)nc2cc(C(=O)N[C@@H](CC(C)C)C(=O)NCCCN3CC(C)OC(C)C3)ccc21 (stereo partly drawn) [Example 294, 1-(1-Ethyl-propyl)-2-thiophen-2-ylmethyl-1H-benzoimidazole-5-carboxylic acid {(S)-1-[3-(2,6-dimethyl-morpholin-4-yl)-propylcarbamoyl]-3-methyl-butyl}-amide] | 722
7 | CCC(CC)n1c(Cc2cccs2)nc2cc(C(=O)N[C@@H](CC(C)C)C(=O)NCC3CCN(CC(C)C)C3)ccc21 (stereo partly drawn) [Example 304, 1-(1-Ethyl-propyl)-2-thiophen-2-ylmethyl-1H-benzoimidazole-5-carboxylic acid {(S)-1-[(1-isobutyl-pyrrolidin-3-ylmethyl)-carbamoyl]-3-methyl-butyl}-amide] | 461
8 | CCC(CC)n1c(Cc2cccs2)nc2cc(C(=O)NC(CC3CCCCCC3)C(=O)O)ccc21 (single isomer, unassigned) [Example 449] | 853
9 | CCC(CC)n1c(Cc2ccco2)nc2cc(C(=O)N[C@H](CC3CCCCC3)C(=O)O)ccc21 [Example 9, (R)-3-Cyclohexyl-2-{[1-(1-ethyl-propyl)-2-furan-2-ylmethyl-1H-benzoimidazole-5-carbonyl]-amino}-propionic acid] | 585
10 | CCC(CC)n1c(Cc2cccs2)nc2cc(C(=O)NC(CCO)C3CC3)ccc21 (stereo not drawn) [Example 213, 1-(1-Ethyl-propyl)-2-thiophen-2-ylmethyl-1H-benzoimidazole-5-carboxylic acid (1-cyclopropyl-3-hydroxy-propyl)-amide] | 29900
11 | CC(C)C[C@@H](CC(=O)O)NC(=O)c1ccc2c(c1)nc(Cc1cccs1)n2C1CCCCC1C (single isomer, unassigned) [Example 439] | 662
12 | CCC(CC)n1c(Cc2ccc(Cl)s2)nc2cc(C(=O)N[C@@H](CC(C)C)C(=O)O)ccc21 [Example 82, (S)-2-{[2-(5-Chloro-thiophen-2-ylmethyl)-1-(1-ethyl-propyl)-1H-benzoimidazole-5-carbonyl]-amino}-4-methyl-pentanoic acid] | 23300
13 | C[C@@H]1CCCC[C@H]1n1c(Cc2cccs2)nc2cc(C(=O)NC(CC(=O)O)CC3CCCCC3)ccc21 (stereo partly drawn) [Example 51, 4-Cyclohexyl-3-{[1-((1R,2R)-2-methyl-cyclohexyl)-2-thiophen-2-ylmethyl-1H-benzoimidazole-5-carbonyl]-amino}-butyric acid] | 211
14 | CCC(CC)n1c(Cc2cccs2)nc2cc(C(=O)N[C@H](CC(=O)O)C(C)C)ccc21 [Example 161, (R)-3-{[1-(1-Ethyl-propyl)-2-thiophen-2-ylmethyl-1H-benzoimidazole-5-carbonyl]-amino}-4-methyl-pentanoic acid] | 2300
15 | CCCCC(NC(=O)c1ccc2c(c1)nc(Cc1cccs1)n2C(CC)CC)C(C)(C)C(=O)O (single isomer, unassigned) [Example 468] | 719
16 | CCC(CC)n1c(Cc2cccs2)nc2cc(C(=O)N[C@@H](CC(C)C)C(=O)N3CCN(C4CCCCC4)CC3)ccc21 [Example 318, 1-(1-Ethyl-propyl)-2-thiophen-2-ylmethyl-1H-benzoimidazole-5-carboxylic acid [(S)-1-(4-cyclohexyl-piperazine-1-carbonyl)-3-methyl-butyl]-amide] | 2860
17 | CCCCC(CC(=O)O)NC(=O)c1ccc2c(c1)nc(Cc1cccs1)n2C(CC)CC (stereo not drawn) [Example 45, 3-{[1-(1-Ethyl-propyl)-2-thiophen-2-ylmethyl-1H-benzoimidazole-5-carbonyl]-amino}-heptanoic acid] | 552
18 | CCC(CC)n1c(Cc2cccs2)nc2cc(C(=O)N[C@@H](CC(C)C)C(=O)NCCN(C)C)ccc21 [Example 267, 1-(1-Ethyl-propyl)-2-thiophen-2-ylmethyl-1H-benzoimidazole-5-carboxylic acid [(S)-1-(2-dimethylamino-ethylcarbamoyl)-3-methyl-butyl]-amide] | 383
19 | CCC(CC)n1c(Cc2ccccc2)nc2cc(C(=O)N[C@@H](CC(C)C)C(=O)O)ccc21 [Example 116, (S)-2-{[2-Benzyl-1-(1-ethyl-propyl)-1H-benzoimidazole-5-carbonyl]-amino}-4-methyl-pentanoic acid] | 6710
20 | CC(C)C[C@@H](CC(=O)O)NC(=O)c1ccc2c(c1)nc(Cc1cccs1)n2C1CCCC1C (stereo partly drawn) [Example 104, (S)-5-Methyl-3-{[1-(2-methyl-cyclopentyl)-2-thiophen-2-ylmethyl-1H-benzoimidazole-5-carbonyl]-amino}-hexanoic acid] | 479
21 | CC(C)C[C@@H](CC(=O)O)NC(=O)c1ccc2c(c1)nc(Cc1cccs1)n2C1CCCCC1C (stereo partly drawn) [Example 101, (S)-5-Methyl-3-{[1-(2-methyl-cyclohexyl)-2-thiophen-2-ylmethyl-1H-benzoimidazole-5-carbonyl]-amino}-hexanoic acid] | 106
22 | CCC(CC)n1c(Cc2cccs2)nc2cc(C(=O)NC(CC(C)C)C(C)(C)C(=O)O)ccc21 (single isomer, unassigned) [Example 465] | 948
23 | CCCCC(CO)NC(=O)c1ccc2c(c1)nc(Cc1cccs1)n2C(CC)CC (stereo not drawn) [Example 197, 1-(1-Ethyl-propyl)-2-thiophen-2-ylmethyl-1H-benzoimidazole-5-carboxylic acid (1-hydroxymethyl-pentyl)-amide] | 1040
24 | CCCN1CCC(NC(=O)[C@H](CC(C)C)NC(=O)c2ccc3c(c2)nc(Cc2cccs2)n3C(CC)CC)CC1 [Example 285, 1-(1-Ethyl-propyl)-2-thiophen-2-ylmethyl-1H-benzoimidazole-5-carboxylic acid [(S)-3-methyl-1-(1-propyl-piperidin-4-ylcarbamoyl)-butyl]-amide] | 295
